From patent US20240390529A1, “DUAL-MODE PROBE FOR DETECTING HYDROGEN SULFIDE AND USE THEREOF” (KYUNGPOOK NATIONAL UNIVERSITY INDUSTRY-ACADEMIC COOPERATION …, priority 2022, published 2024)

Assays:
H2S in HeLa cells = experiment: Fluorescence imaging of exogenous and endogenous H2S in live HeLa cells; assay type: cell-based, human
Excerpt: Next, we investigated the usefulness of Cu-ATSM-FITC(5) for monitoring H2S levels in living cells (FIG. 14).

[1] = test system: H2S concentration in brain tissues; experiment: Quantification of H2S in brain by methylene blue method; assay type: in vivo, mice
Experimental: The methylene blue method was used to directly measure H2S concentration in brain tissues. Briefly, PET imaging was performed, brains were harvested, weighed, and homogenized in liquid N2. An ice-cold PBS solution in a volume equivalent to the weight of the homogenate (w/v, approximately 260 to 300 mg) was added, followed by vortex for 3 min and centrifugation (14,000 rpm, 5 min, 4° C.). Then, 100 μL of the supernatant was incubated together with 100 μL of 1% zinc acetate dihydrate at 37° C. for 10 minutes to immobilize H2S. 100 μL of 0.1 M sodium tetraborate buffer (pH 9) and 200 μL of 20 mM N, N-dimethyl-p-phenylenediamine sulfate were added to 7.2 M HCl, and 200 μL of 30 mM iron (III) chloride was added to 1.2 M HCl, and the mixture was incubated at 37° C. for 15 min to form methylene blue dyes. The mixture was centrifuged again (14,000 rpm, 5 minutes, 4° C.). 100 μL of supernatant was transferred in triplicate to 96-well plates, and absorbance was recorded spectrophotometrically at 670 nm. The H2S concentration was calculated by using a standard curve obtained by plotting absorbance (A670) versus NaHS concentration (0 to 30 μM). For quantification of H2S in the left and right hemispheres of the brains, PET imaging was performed, and only the cerebral hemispheres were harvested and processed separately. […]

[2] = Optical properties (UV-Vis absorbance, fluorescence emission); assay type: physicochemical
Experimental: The optical properties of the free ligand ATSM-FITC (4) were evaluated. […] When H2S sequestered Cu(II) ions from the copper complex (5) and precipitated CuS, the ATSM-FITC ligand was released and fluorescence was emitted (FIG. 7).

[3] = Fluorescence response of probe to NaHS (sensitivity, reaction rate, detection limit)
Experimental: To confirm the sensitivity, Cu-ATSM-FITC(5) was incubated with a wide range of NaHS concentrations (0-100 μM) at 37° C. and the fluorescence intensity was measured (FIG. 6B). […] When reacted with 50 μM NaHS solution, the fluorescence intensity of Cu-ATSM-FITC(5) reached a plateau within 30 seconds (FIG. 6C). In contrast, the reactivity of Cu-ATSM-FITC(5) toward L-cysteine (1 mM) and glutathione (GSH) (10 mM) was minimal, as compared to H2S, even though their concentrations were at least 20 times higher than H2S. The detection limit of Cu-ATSM-FITC(5) was calculated to be 0.20 μM using the regression equation (FIG. 8). The quantum yield was confirmed to be 0.33 according to the equation, as compared to the fluorescein standard value (FIG. 9).

[4] = Selectivity toward competing biological species with and without H2S
Excerpt: The selectivity of Cu-ATSM-FITC(5) was investigated against a variety of potentially competing biological species in the presence and absence of H2S (FIG. 6D).

[5] = Fluorescence stability and reactivity at various pH; assay type: physicochemical; conditions: pH 5 to 10
[6] = Measurement of quantum yield versus fluorescein standard; assay type: physicochemical; conditions: compared to the fluorescein standard value
Experimental: The background levels of methanol used in the experiment were measured by using a SpectraMaxi-3 spectraphotometer, and Cu-ATSM-FITC(5) was measured at concentrations of 0.02, 0.04, 0.06, 0.08, and 0.1 μM. A fluorescein standard line graph was obtained according to the concentration and intensity of Cu-ATSM-FITC(5). The quantum yield was calculated according to the following equation: Φ=ΦST (Grad x/Grad ST) (η×2/ηST 2). Here, the subscripts ST and X represent the measured values of the standard and test solutions, respectively. In addition, Φ represents the quantum yield and η represents the refractive index of the solution.

[7] = test system: Human cervical cancer cells (HeLa); experiment: MTT cytotoxicity analysis, HeLa; assay type: cell-based
Experimental: (§1) The cytotoxicity of Cu-ATSM-FITC(5) was evaluated through 3-(4,5-dimethyl-2-thiazolyl)-2,5-diphenyltetrazolium bromide (MTT; sigma-aldrich) analysis. Human cervical cancer cells (HeLa), human hepatoma cells (HepG2), and human embryonic kidney cells (HEK293) were prepared in 96-well plates at a density of 10,000 cells per well. As compared to the control group treated with PBS alone, they were treated with Cu-ATSM-FITC (5) at increasing concentrations of 1, 10, and 25 μM. Afterwards, they were incubated for 1, 4, and 24 hours (37° C., 5% CO2), respectively. For each treatment time, each well was added with 10 μL of MTT (5 mg/mL in PBS) solution and incubated for 3 hours. The supernatant was carefully aspirated, and the purple insoluble formazan crystals in the wells were dissolved using DMSO for 30 minutes. Absorbance was measured at 550 nm using a spectrophotometer (SPECTROstar Nano, BMG Labtech, Ortenberg, Germany). CuS was also performed four times in a similar manner by using HeLa, HEK293, HepG2, and human brain glioblastoma (U87MG) cells.

[8] = test system: human hepatoma cells (HepG2); experiment: MTT cytotoxicity analysis, HepG2; assay type: cell-based
Experimental: as §1

[9] = test system: human embryonic kidney cells (HEK293); experiment: MTT cytotoxicity analysis, HEK293; assay type: cell-based
Experimental: as §1

mouse brain tissues = conditions: up to 7 days after injection of high-dose 500 μg; CuS precipitated
Experimental: Animals were anesthetized by using isoflurane, and injected with 100 μg of Cu-ATSM-FITC(5) in 100 μL of 10% DMSO/PBS, and 500 μg of Cu-ATSM-FITC(5) in 100 μL of 40% DMSO/PBS, respectively, through tail vein injection. The animals were perfused transcardially with saline 1, 3, and 7 days after the injection. The brains were dissected, fixed in 4% paraformaldehyde, and embedded in paraffin to make blocks. Serial coronal sections in paraffin with the thickness of 7 μm were obtained. The sections were stained with H&E by using a staining kit (BBC ClearView, BBC Eosin Y Alcoholic). The stained brain tissues were photographed under a Carl Ziess microscope at 400× magnification.

[10] = test system: human brain glioblastoma (U87MG) cells; experiment: MTT cytotoxicity analysis, U87MG; assay type: cell-based
Experimental: as §1

[11] = Biodistribution in normal BALB/c mice (γ-counter); assay type: in vivo; conditions: 4 hours after administration
Experimental: BALB/c mice (male, 9 weeks old) were used to investigate the systemic distribution and clearance rate of ^64Cu-ATSM-FITC (6). ^64Cu-ATSM-FITC (6) with a radioactivity of 0.56 to 0.74 MBq in a saline solution (5% DMSO, 200 μL) was injected into mice through the tail vein under anesthesia. […] Blood was drawn, and organs comprising heart, lung, muscle, fat, bone, spleen, kidney, liver, intestine, and brain were harvested, weighed, and analyzed by using a γ-counter (Wallac Wizard 1480, PerkinElmer, France). Radioactivity was calculated as percentage of injected dose per gram (% ID/g).
The distribution of ^64Cu-ATSM-aniline in the body was confirmed by using the same method as described in Experimental Methods 5 and 7 above.

**Q.** With `C#CCC(N)C(=O)O` (racemic) [DL-propargylglycine, reference compound] as the molecule, how does the “green fluorescence due to endogenous H2S after CSE blockade” value (H2S in HeLa cells; 450 μM, HeLa cells probed with Cu-ATSM-FITC(5)) read?
**A.** The value was “completely reduced”.

**Q.** Which results are given for `Cl.NOCC(=O)O.NOCC(=O)O` [AOAA]?
**A.** reduction of H2S concentration in the brain compared to controls ([1]; 10 mg/kg intraperitoneal, mice): 32%; H2S concentration in the brain ([1]; AOAA-treated mice): 2.1±0.5 μg/g brain

**Q.** What does the source list for `CNC(=S)N/N=C(C)/C(C)=N/NC(=S)Nc1ccc(-c2c3ccc(=O)cc-3oc3cc(O)ccc23)c(C(=O)O)c1` [ATSM-FITC (4), 2-(6-hydroxy-3-oxo-3H-xanthen-9-yl)-5-((E)-2-((E)-3-(2-(methylcarbamothioyl)hydrazono)butan-2-ylidene)hydrazinecarbothioamido)benzoic Acid]?
**A.** absorbance band ([2]; UV-Vis spectroscopy): 494 nm; maximum fluorescence emission ([2]; excitation at 480 nm): 524 nm

**Q.** Which “fluorescence signal of the complex” value ([2]; without H2S) does the source give for `CNC([S-])=NN=C(C)C(C)=NN=C([S-])Nc1ccc(-c2c3ccc(=O)cc-3oc3cc(O)ccc23)c(C(=O)O)c1.[Cu+2]` [Cu-ATSM-FITC(5), Copper(II) Complex of 2-(6-hydroxy-3-oxo-3H-xanthen-9-yl)-5-((E)-2-((E)-3-(2-(methylcarbamothioyl)hydrazono)butan-2-ylidene)hydrazinecarbothioamido)benzoic Acid] here?
**A.** Its value is “did not show a detectable fluorescence signal”.

**Q.** And the “time for fluorescence intensity to reach a plateau” value ([3]; 50 μM NaHS solution)?
**A.** Its value is ≤ 30 s.

**Q.** What about the “fluorescence enhancement at 524 nm” value ([3]; 100 μM NaHS compared to concentration 0, 37° C.) of the same molecule?
**A.** Its value is “up to 3500 fold”.

**Q.** What about the “reactivity toward L-cysteine and glutathione (GSH) compared to H2S” value ([3]; L-cysteine 1 mM, GSH 10 mM) of the same molecule?
**A.** Its value is “minimal”.

**Q.** What about the detection limit ([3]; calculated using the regression equation, H2S) of the same molecule?
**A.** Its detection limit is 0.20 µM.

**Q.** And the “fluorescence intensity with competing species plus NaHS” value ([4]; NaHS 50 μM added with other biologically abundant species)?
**A.** The value was “full fluorescence intensity was observed without interference”.

**Q.** And the “reactivity (fluorescence signals) with other species” value ([4]; biothiols, inorganic sulfur species, reducing agents, nucleophiles, ROS/RNS, absence of H2S)?
**A.** The value was “did not show reactivity”.

**Q.** And the “stability and reactivity over physiological pH range” value [5]?
**A.** The value was “high stability and reactivity”.

**Q.** And the quantum yield [6]?
**A.** The quantum yield was 0.33.

**Q.** And the “survival rate of HeLa cells” value ([7]; 1, 10, and 25 μM, 24 hours of incubation)?
**A.** Its value is “exceeded 85%”.

**Q.** And the cytotoxicity [8]?
**A.** The cytotoxicity was “No cytotoxicity was observed”.

**Q.** And the cytotoxicity [9]?
**A.** The cytotoxicity was “No cytotoxicity was observed”.

**Q.** What about the “detection of endogenous H2S induced by L-cysteine” value (H2S in HeLa cells; L-cysteine 100 μM) of the same molecule?
**A.** Its value is “successfully detected the increase in endogenous H2S concentration”.

**Q.** What about the “green fluorescence intensity in HeLa cells on addition of NaHS” value (H2S in HeLa cells; NaHS 50 and 100 μM) of the same molecule?
**A.** Its value is “linear rise in green fluorescence intensity”.

**Q.** And the “fluorescence signal in HeLa cells” value (H2S in HeLa cells; probe 25 μM, no added H2S)?
**A.** Its value is “faint fluorescence signal”.

**Q.** What about the “toxicity in mouse brain tissues (H&E staining)” value (mouse brain tissues) of the same molecule?
**A.** Its value is “low toxicity”.

**Q.** What does the source list for `[S]=[Cu]` [CuS, copper sulfide]?
**A.** cytotoxicity ([7]; HeLa): no cytotoxicity was found; cytotoxicity [8]: no cytotoxicity was found; cytotoxicity [9]: no cytotoxicity was found; cytotoxicity [10]: no cytotoxicity was found

**Q.** What does the source list for `CNC([S-])=NN=C(C)C(C)=NN=C([S-])Nc1ccc(N(C)C)cc1.[64Cu+2]` [^64Cu-ATSM-aniline, reference compound]?
**A.** distribution in the brain [11]: very low; organs of widest distribution [11]: lungs and liver
